Results on 13 compounds are retold here after ChEMBL document CHEMBL1201862, “PubChem BioAssay data set” (2004).

The term GI50 denotes the concentration that inhibits growth by half.

Common to all, as to experiment: DTP human tumour cell line panel, 48 h
In assay [1] the test system is HL-60.
Assay [2] deals with CAKI-1.
The test system of assay [3] is M14.
In assay [4] the test system is HOP-62.
Assay [5] relates to A549.
The subject of assay [6] is SW-620.
The subject of assay [7] is SF-268.
In assay [8] the test system is NCI-H522.
In assay [9] the test system is ACHN.
Assay [10] concerns SNB-19.
Assay [11] has as its system SN12C.
Assay [12] relates to SK-OV-3.
Assay [13] deals with HCC 2998.
In assay [14] the test system is HCT-15.
For assay [15], the system named is RXF 393.
For assay [16], the system named is HCT-116.

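How tested: cells in 96-well plates exposed to compound for 48 hours at five concentrations. Here, GI50 denotes the concentration required for 50% inhibition of growth.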 Calls of active or inactive are those of the source. No stated cut-off is given here; in the data, active = GI50 up to about 1.1 µM and inactive = higher.

Take `N=c1n(CC(=O)NC23CC4CC(CC(C4)C2)C3)c2ccccc2n1CC(=O)NC12CC3CC(CC(C3)C1)C2`: the GI50 is 2.67 µM (inactive) in assay [1]; 12 µM (inactive) in assay [2]; 1.96 µM (inactive) in assay [3]; 2.02 µM (inactive) in [4]; 2.07 µM (inactive) in [5]; 1.63 µM (inactive) in assay [6]. Also, the GI50 in assay [7] was 1.95 µM (inactive); in assay [8], 1.9 µM (inactive); in assay [9], 2 µM (inactive); in assay [10] it was 1.66 µM (inactive); in assay [11], 1.87 µM (inactive); in [12], 15.7 µM (inactive). Further, the GI50 in assay [13] was 1.36 µM (inactive); in assay [14] it was 1.9 µM; in assay [15] it was 1.75 µM (inactive); in assay [16], 2.03 µM (inactive).
On to `CS(=O)(=O)NNS(=O)(=O)c1ccc(Br)cc1`, for which the GI50 in [1], in assay [2], in assay [3], in assay [4], in assay [5] and in assay [6] was > 100 µM (inactive) in each case. In addition, the GI50 in assay [7], in [8], in [9], in assay [10], in assay [12] and in [13] was > 100 µM (inactive) in each case. For the same compound, the concentration for 50% growth inhibition (GI50) is above 100 µM in assay [14], > 100 µM (inactive) in [15] and > 100 µM (inactive) in assay [16].
Consider `COc1cc(C2c3cc4c(cc3[C@@H](Nc3ccc(N(C)C)cc3)[C@H]3COC(=O)C23)OCO4)cc(OC)c1O` (some centres undefined), for which the 50% growth inhibitory concentration (GI50) in assay [1] is 0.193 µM (active); in assay [2] it was 0.141 µM (active); in assay [3], 0.327 µM (active); in [4], 0.103 µM (active); in [5], 0.0871 µM (active); in assay [6], 0.807 µM (active). The GI50 in assay [7] is 0.351 µM (active); in assay [8], 0.873 µM (active); in assay [9] it was 0.049 µM (active); in [10], 0.273 µM (active); in assay [11] it was 0.34 µM (active); in [12] it was 0.212 µM (active). For the same compound, the GI50 in assay [13] was 1.27 µM (inactive); in [14], 0.838 µM; in assay [15] it was 0.951 µM (active); in [16], 0.582 µM (active).
Take `Cc1cccc(O)c(=O)c1`: the GI50 in assay [1] is 3.44 µM (inactive); in assay [2], 63.1 µM (inactive); in [3], 31.8 µM (inactive); in [4] it was 39.2 µM (inactive); in assay [5], 24.9 µM (inactive); in [6] it was 16.4 µM (inactive). Also, the GI50 in [7] is 21.2 µM (inactive); in assay [8], 6.79 µM (inactive); in assay [9] it was 31.7 µM (inactive); in [10], 92.9 µM (inactive); in assay [11], 37.8 µM (inactive); in assay [12], > 100 µM (inactive). The GI50 in assay [13] was 44.4 µM (inactive); in assay [14] it was 8.3 µM; in assay [15], > 100 µM (inactive); in assay [16], 11.9 µM (inactive).
As to `C(=C1\CCC/C(=C/c2ccccc2)C1=NNc1ccccc1)/c1ccccc1`, the GI50 in assay [1] is > 100 µM (inactive); in assay [3], > 100 µM (inactive); in assay [4], 46.7 µM (inactive); in [5], > 100 µM (inactive); in assay [6], > 100 µM (inactive); in assay [7] it was > 100 µM (inactive). In addition, the GI50 in [8], in assay [9], in assay [10], in assay [11], in assay [12] and in assay [13] was > 100 µM (inactive) in each case. For the same compound, the GI50 in [14] is above 100 µM; in [15], 38.2 µM (inactive); in assay [16], > 100 µM (inactive).
On to `CCOC(=O)c1ccc(-n2c(SCC)nc3sc(C)c(C)c3c2=O)cc1`, for which the GI50 in assay [1], in assay [2], in assay [3], in assay [4], in assay [5] and in assay [6] was > 100 µM (inactive) each time. For the same compound, the GI50 in [7], in assay [8], in assay [9], in assay [10], in assay [11] and in [12] was > 100 µM (inactive) in each case. The GI50 is > 100 µM (inactive) in assay [13], above 100 µM in assay [14], 94.8 µM (inactive) in [15] and > 100 µM (inactive) in assay [16].
Regarding `CC(=O)OC1(C)C(=O)OC1(C)C(C)=O` (centres undefined), the GI50 in assay [1], in assay [2], in assay [3], in assay [5], in assay [6] and in assay [7] was > 100 µM (inactive) in each case. Also, the GI50 in assay [8], in [9], in [10], in [11], in assay [12] and in [13] was > 100 µM (inactive) each time. For the same compound, the GI50 is above 100 µM in [14], > 100 µM (inactive) in assay [15] and > 100 µM (inactive) in assay [16].
For the compound `CC1(C)CCCC2(C)[C@@H]1CC[C@@]13CC(=O)[C@@](C)(CC[C@@H]21)C3` (some centres undefined), the GI50 in assay [1] is 52.4 µM (inactive); in assay [2], > 100 µM (inactive); in assay [3] it was 94.6 µM (inactive); in assay [4] it was 82.2 µM (inactive); in [5], 85.1 µM (inactive); in assay [6] it was > 100 µM (inactive). The GI50 was 95.7 µM (inactive) in assay [7]; 20.9 µM (inactive) in assay [8]; 87.3 µM (inactive) in assay [9]; > 100 µM (inactive) in [10]; 93.5 µM (inactive) in assay [11]; > 100 µM (inactive) in [12]. Further, the GI50 in assay [13] is > 100 µM (inactive); in assay [14] it was 97.5 µM; in assay [15], 18.3 µM (inactive); in assay [16], 46.1 µM (inactive).
`COc1cc2ccnc(-c3c4ccccc4c(N)c4c(OC)c(OC)ccc34)c2cc1OC`: the GI50 was 1.39 µM (inactive) in assay [1]; 2.65 µM (inactive) in assay [2]; 2.96 µM (inactive) in [4]; 4.17 µM (inactive) in assay [5]; 2.28 µM (inactive) in assay [6]; 3.01 µM (inactive) in [7]. Further, the GI50 in assay [8] is 3.16 µM (inactive); in assay [9], 3.54 µM (inactive); in [10] it was 2.85 µM (inactive); in assay [11], 3.47 µM (inactive); in [12], 7.13 µM (inactive); in assay [13], 2.62 µM (inactive). Moreover, the GI50 in [15] is 2.4 µM (inactive).
Turning to `O=C1/C(=C/c2ccc3c(c2)OCCO3)CCC/C1=C\c1ccc2c(c1)OCCO2`, the GI50 in [1] was 12.3 µM (inactive); in assay [2], 39.3 µM (inactive); in assay [3] it was 19 µM (inactive); in assay [4], 33.3 µM (inactive); in assay [5], 23.8 µM (inactive); in [6], 18.2 µM (inactive). Also, the GI50 was 26.2 µM (inactive) in assay [7]; 35.4 µM (inactive) in assay [8]; 39.9 µM (inactive) in assay [9]; 34.8 µM (inactive) in assay [10]; 25.7 µM (inactive) in [11]; 83.8 µM (inactive) in assay [12]. The GI50 in assay [13] was 18.1 µM (inactive); in assay [14], 24.5 µM; in assay [15], 20 µM (inactive); in assay [16], 2.53 µM (inactive).
For `C[N+](C)=c1[nH]c2ccccc2[nH]1`, the GI50 in [1], in assay [2], in [3], in assay [4], in assay [5] and in [6] was > 100 µM (inactive) throughout. In addition, the GI50 in assay [7], in [8], in assay [9], in assay [11], in assay [12] and in assay [13] was > 100 µM (inactive) in each case. The results for the GI50 in assay [14] and in [15] were above 100 µM and > 100 µM (inactive), respectively.
On to `N=C(CC(=O)Nc1ccc(Cl)cc1)Nc1ccccc1`, for which the GI50 in [1], in [2], in assay [3], in assay [4], in [5] and in assay [6] was > 100 µM (inactive) in each case. For the same compound, the GI50 in assay [7], in [8], in assay [9], in assay [10], in assay [11] and in assay [12] was > 100 µM (inactive) in each case. Moreover, the GI50 in assay [13], in assay [15] and in assay [16] was > 100 µM (inactive) throughout.
On to `CCOc1ccccc1NC(=O)CSc1nnc(Cc2ccccc2)o1`, for which the GI50 in assay [1] is 35.7 µM (inactive); in [2], 20.5 µM (inactive); in assay [3], 21.9 µM (inactive); in assay [4], > 100 µM (inactive); in assay [5], > 100 µM (inactive); in [6] it was 16.6 µM (inactive). The GI50 in assay [7] was 23.9 µM (inactive); in assay [8], 18.2 µM (inactive); in assay [9], 22.5 µM (inactive); in [10], 24 µM (inactive); in [11], 26 µM (inactive); in assay [12], 44.9 µM (inactive). In addition, the GI50 in assay [13] is 48.1 µM (inactive); in assay [14] it was 17.3 µM; in assay [15] it was 35.7 µM (inactive); in assay [16], 30.6 µM (inactive).
